Consider 25 compounds from patent US20230116972A1, “CD38 MODULATORS AND METHODS OF USE THEREOF” (Cytokinetics, Inc., priority 2021, published 2023).

Assay [1] addresses T1, human CD38 (Homo sapiens, UniProt P28907).
T1 sequence (P28907 1-300): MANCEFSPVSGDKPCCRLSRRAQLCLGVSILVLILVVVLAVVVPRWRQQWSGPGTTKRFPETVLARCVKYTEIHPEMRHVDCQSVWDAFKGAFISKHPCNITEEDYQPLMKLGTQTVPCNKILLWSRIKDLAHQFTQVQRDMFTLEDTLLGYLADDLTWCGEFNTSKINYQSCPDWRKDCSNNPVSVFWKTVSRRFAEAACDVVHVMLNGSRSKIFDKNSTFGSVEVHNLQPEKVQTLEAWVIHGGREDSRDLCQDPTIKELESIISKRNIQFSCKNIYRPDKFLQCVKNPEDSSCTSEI
Description: human recombinant CD38 enzyme assay (hydrolysis of NAD+). In kind it is biochemical. The note with it: human recombinant CD38, 0.4 nM enzyme, 62.5 μM NAD+; read-out: hCD38 BioChem IC50. A digest of the protocol: (§1)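 Cell-free recombinant enzyme, NAD+ substrate, 60 min at RT. Stop/detect: ethanol/ADH plus semicarbazide and a CD38 inhibitor (15 min), then NaOH, then resazurin/diaphorase (15 min). Remaining NAD+ read as resorufin fluorescence, Ex/Em 540/590 nm. Inhibition fitted from dose responses.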

The target in assay [2] is T2, mouse CD38 (Mus musculus, UniProt P56528).
T2 sequence (P56528 1-304): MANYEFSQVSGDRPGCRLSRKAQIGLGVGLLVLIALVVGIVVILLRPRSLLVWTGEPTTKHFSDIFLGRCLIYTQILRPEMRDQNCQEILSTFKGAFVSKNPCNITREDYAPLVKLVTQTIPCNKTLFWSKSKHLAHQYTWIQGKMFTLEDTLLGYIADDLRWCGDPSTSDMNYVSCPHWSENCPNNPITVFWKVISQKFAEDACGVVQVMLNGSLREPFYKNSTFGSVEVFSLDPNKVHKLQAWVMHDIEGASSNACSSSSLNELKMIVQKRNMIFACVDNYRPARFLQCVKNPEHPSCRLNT
Description: mouse recombinant CD38 enzyme assay (hydrolysis of NAD+). Type of assay: biochemical. Particulars: read-out: mCD38 BioChem IC50. In short, it runs like this: as §1

Assay [3] has as its target T3, endogenous CD38 in HL60 cells (Homo sapiens, UniProt P28907).
T3 construct: endogenous in cells; host or cells: HL60 (leukemic cells, treated with all-trans retinoic acid)
T3 sequence (P28907 1-300): T1 sequence (P28907 1-300)
In words: cellular CD38 assay in HL60 cells (cellular NAD levels). Type of assay: cell-based. The note with it: all-trans retinoic acid, 24 hours, read-out: hCD38 HL60 ATRA NAD Cell Diaphorase IC50. A digest of the protocol:
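HL60 cells (20000/well) were treated with compound in DMSO for 24 h. Cellular NAD was then measured by an enzymatic cycling mix (alcohol dehydrogenase, diaphorase, 40 uM resazurin, 10 uM FMN, 3% ethanol, Triton X-100, pH 8.4).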

Consider `COCCO[C@H]1CC[C@H](NC(=O)c2cc(C(F)(F)F)cc(-n3ccnc3)n2)CC1` [Compound 61, 6-(1H-imidazol-1-yl)-N-(4-(2-methoxyethoxy)cyclohexyl)-4-(trifluoromethyl)picolinamide], for which the IC50 (in general, the midpoint of a concentration-inhibition curve) is 0.073 µM in assay [1], 0.013 µM in assay [2] and 7.85 µM in assay [3].

On to `Cc1cc(C(=O)N[C@H]2CC[C@H](C)CC2)nc(-c2cncn2C)n1` [Compound 123, 6-methyl-2-(1-methyl-1H-imidazol-5-yl)-N-((1r,4r)-4-methylcyclohexyl)pyrimidine-4-carboxamide], for which the half-maximal inhibitory concentration (IC50) in assay [1] is 0.01 µM; in assay [2], 0.001 µM; in assay [3], 0.952 µM.

For the compound `COCCO[C@H]1CC[C@H](NC(=O)c2cccc(-n3ccnc3)n2)CC1` [Compound 14, 6-(1H-imidazol-1-yl)-N-(4-(2-methoxyethoxy)cyclohexyl)picolinamide], the IC50 came to 0.091 µM in assay [1], 0.017 µM in assay [2] and 3.29 µM in assay [3].

Regarding `O=C(N[C@H]1CC[C@H](NCC(F)(F)F)CC1)c1nccc(-n2ccnc2)n1` [Compound 265, 4-(1H-imidazol-1-yl)-N-((1r,4r)-4-((2,2,2-trifluoroethyl)amino)cyclohexyl) pyrimidine-2-carboxamide], the IC50 in assay [1] worked out at 0.0834 µM; in assay [2], 0.0359 µM; in assay [3], 4.17 µM.

For `Cc1cc(C(=O)N[C@H]2CC[C@H](C(F)F)CC2)nc(-n2ccnc2)c1` [Compound 97, N-(4-(difluoromethyl)cyclohexyl)-6-(1H-imidazol-1-yl)-4-methylpicolinamide], the IC50 in assay [1] came to 0.024 µM; in assay [2] it was 0.003 µM; in assay [3] it was 1.53 µM.

On to `O=C(Nc1ccc(C(F)(F)F)nc1)c1cccc(-n2ccnc2)n1` [Compound 13, 6-(1H-imidazol-1-yl)-N-(6-(trifluoromethyl)pyridin-3-yl)picolinamide], for which the IC50 was 0.006 µM in assay [1], 0.008 µM in assay [2] and 0.568 µM in assay [3].

For `O=C(N[C@H]1C[C@H](c2ccc(F)cc2F)C1)c1nccc(-n2ccnc2)n1` [Compound 239, N-((1r,3r)-3-(2,4-difluorophenyl)cyclobutyl)-4-(1H-imidazol-1-yl)pyrimidine-2-carboxamide], the IC50 in assay [1] is 0.0612 µM; in assay [2], 0.0336 µM; in assay [3], 3.13 µM.

In the case of `COc1ncc(-c2cncn2C)nc1C(=O)N[C@H]1CC[C@H](OC)CC1` [Compound 303, 3-methoxy-N-((1r,4r)-4-methoxycyclohexyl)-6-(1-methyl-1H-imidazol-5-yl)pyrazine-2-carboxamide], the IC50 was determined as 0.296 µM in assay [1], 0.0624 µM in assay [2] and 10.4 µM in assay [3].

As to `Cc1ccc(NC(=O)c2cc(C(F)(F)F)nc(-n3ccnc3)n2)cn1` [Compound 137, 2-(1H-imidazol-1-yl)-N-(6-methylpyridin-3-yl)-6-(trifluoromethyl)pyrimidine-4-carboxamide], the IC50 in assay [1] came to 0.008 µM; in assay [2] it was 0.007 µM; in assay [3] it was 0.867 µM.

As for `COc1cc(-n2ccnc2)nc(C(=O)Nc2ccc(C(F)F)nc2)n1` [Compound 210, N-(6-(difluoromethyl)pyridin-3-yl)-4-(1H-imidazol-1-yl)-6-methoxypyrimidine-2-carboxamide], the IC50 in assay [1] was found to be 0.0016 µM; in assay [2], 0.0012 µM; in assay [3] it was 0.303 µM.

`COCCOc1cc(-c2cncn2C)nc(C(=O)Nc2ccc(C(F)F)nc2)n1` [Compound 224, N-(6-(difluoromethyl)pyridin-3-yl)-4-(2-methoxyethoxy)-6-(1-methyl-1H-imidazol-5-yl)pyrimidine-2-carboxamide]: the IC50 is 0.0056 µM in assay [1], 0.0011 µM in assay [2] and 0.707 µM in assay [3].

For `CO[C@H]1CC[C@H](NC(=O)c2cc(C)nc(-c3cncn3C)n2)CC1` [Compound 121, N-((1r,4r)-4-methoxycyclohexyl)-6-methyl-2-(1-methyl-1H-imidazol-5-yl)pyrimidine-4-carboxamide], the IC50 turned out to be 0.014 µM in assay [1], 0.001 µM in assay [2] and 1.05 µM in assay [3].

Regarding `O=C(Nc1ccc(C(F)(F)F)nc1)c1nccc(-n2ccnc2)n1` [Compound 72, 4-(1H-imidazol-1-yl)-N-(6-(trifluoromethyl)pyridin-3-yl)pyrimidine-2-carboxamide], the IC50 in assay [1] worked out at 0.004 µM; in assay [2], 0.019 µM; in assay [3], 0.295 µM.

`COc1cc(-c2cncn2C)nc(C(=O)Nc2ccc(C(F)F)nc2)n1` [Compound 201, N-(6-(difluoromethyl)pyridin-3-yl)-4-methoxy-6-(1-methyl-1H-imidazol-5-yl)pyrimidine-2-carboxamide]: the values for the IC50 in assay [1], in assay [2] and in assay [3] were 0.0026 µM, 0.0013 µM and 0.317 µM, respectively.

As to `COCCO[C@H]1CC[C@H](NC(=O)c2nccc(-c3cncn3C)n2)CC1` [Compound 209, N-((1r,4r)-4-(2-methoxyethoxy)cyclohexyl)-4-(1-methyl-1H-imidazol-5-yl)pyrimidine-2-carboxamide], the IC50 in assay [1] amounted to 0.104 µM; in assay [2], 0.035 µM; in assay [3], 8.54 µM.

In the case of `C[C@H]1CC[C@H](NC(=O)c2cncc(-n3ccnc3)n2)CC1` [Compound 102, 6-(1H-imidazol-1-yl)-N-((1r,4r)-4-methylcyclohexyl)pyrazine-2-carboxamide], the IC50 in assay [1] worked out at 0.023 µM; in assay [2] it was 0.007 µM; in assay [3] it was 1.01 µM.

In the case of `COc1ccc(NC(=O)c2cccc(-n3ccnc3)n2)cn1` [Compound 25, 6-(1H-imidazol-1-yl)-N-(6-methoxypyridin-3-yl)picolinamide], the IC50 came to 0.013 µM in assay [1], 0.013 µM in assay [2] and 0.468 µM in assay [3].

On to `O=C(N[C@H]1CCN(c2ccccc2)C1)c1nccc(-n2ccnc2)n1` [Compound 247, (S)-4-(1H-imidazol-1-yl)-N-(1-phenylpyrrolidin-3-yl)pyrimidine-2-carboxamide], for which the IC50 was 0.233 µM in assay [1], 0.139 µM in assay [2] and 14.4 µM in assay [3].

Consider `O=C(N[C@H]1CC[C@H](C(F)(F)F)CC1)c1ccnc(-n2ccnc2)n1` [Compound 79, 2-(1H-imidazol-1-yl)-N-((1r,4r)-4-(trifluoromethyl)cyclohexyl)pyrimidine-4-carboxamide], for which the IC50 worked out at 0.021 µM in assay [1], 0.012 µM in assay [2] and 2.33 µM in assay [3].

In the case of `C[C@H]1CC[C@H](NC(=O)c2nccc(-n3ccnc3)n2)CC1` [Compound 146, 4-(1H-imidazol-1-yl)-N-((1r,4r)-4-methylcyclohexyl)pyrimidine-2-carboxamide], the figures for the concentration for half-maximal inhibition (IC50) in assay [1], in assay [2] and in assay [3] were 0.062 µM, 0.023 µM and 1.7 µM, respectively.

Turning to `CC(=O)N1CCC(NC(=O)c2cccc(-n3ccnc3)n2)CC1` [Compound 44, N-(1-acetylpiperidin-4-yl)-6-(1H-imidazol-1-yl)picolinamide], the half-inhibitory concentration (IC50) worked out at 0.098 µM in assay [1], 0.066 µM in assay [2] and 5.82 µM in assay [3].

Turning to `O=C(Nc1ccccc1F)c1cccc(-n2ccnc2)n1` [Compound 17, N-(2-fluorophenyl)-6-(1H-imidazol-1-yl)picolinamide], the IC50 in assay [1] amounted to 0.067 µM; in assay [2], 0.027 µM; in assay [3], 1.4 µM.

`Cn1cncc1-c1nc(C(=O)N[C@H]2CC[C@H](C(F)F)CC2)cc(C2CCOCC2)n1` [Compound 227, N-((1r,4r)-4-(difluoromethyl)cyclohexyl)-2-(1-methyl-1H-imidazol-5-yl)-6-(tetrahydro-2H-pyran-4-yl)pyrimidine-4-carboxamide]: the IC50 in assay [1] was found to be 0.0093 µM; in assay [2], 0.0024 µM; in assay [3], 2.07 µM.

`CO[C@H]1CC[C@H](NC(=O)c2cncc(-c3cncn3C)n2)CC1` [Compound 91, N-((1r,4r)-4-methoxycyclohexyl)-6-(1-methyl-1H-imidazol-5-yl)pyrazine-2-carboxamide]: the IC50 in assay [1] turned out to be 0.038 µM; in assay [2], 0.019 µM; in assay [3] it was 2.08 µM.

`Cn1cncc1-c1ccnc(C(=O)N[C@H]2CC[C@H](CO)CC2)n1` [Compound 259, N-((1r,4r)-4-(hydroxymethyl)cyclohexyl)-4-(1-methyl-1H-imidazol-5-yl)pyrimidine-2-carboxamide]: the IC50 in assay [1] amounted to 0.0461 µM; in assay [2] it was 0.0156 µM; in assay [3], 2.28 µM.
